Test results as given in patent US20200072711A1, “FLUORESCENT ENDOPLASMIC RETICULUM TRACKERS FOR LIVE CELL IMAGING OF PATHOGENIC YEAST” (Ramot at Tel Aviv University Ltd., priority 2018, published 2020).
In brackets after ≈: the same amount, converted by molar mass. Entries after “also recorded” stand apart in the source; their conditions may differ.

Key:
[1] = system: tested panel of Candida strains; test: Live cell imaging, ER labeling; type: cell-based; settings: panel of Candida strains (C. albicans and C. glabrata)
Protocol: (§1) Growth conditions for live cell imaging. Cells were grown to log phase in liquid YPD overnight at 30° C. in a 10 ml tube. Cells were diluted 1:10 and then incubated for 2 h at 30° C. to log phase.
(§2) Cell staining. The fluorescent probes were added to a final concentration of 10 μM for probes 1-6 to cells from a log phase culture grown in YPD broth media at 30° C. Cells were then incubated in the dark for a total of 60 min. Before imaging, cells were washed once with PBS buffer. For ER-tracker dyes, DiOC6 (1 μg/mL) and BODIPY™ TR Glibenclamide (1 μM), staining cells were incubated in a prepared Hanks' Balanced Salt Solution at 37° C. for 5 min and 30 min, respectively. For ER-tracker Blue-White DPX (1 μM), staining cells were incubated in YPD for 30 min at 30° C. For mitochondrial staining the previously reported Cy5-based mitochondrial dye was used (1 μg/mL). For staining, cells were incubated in YPD in the presence of dye for 5 min at 30° C. Cells were then washed with PBS buffer once.
Live cell imaging. Candida cells were resuspended in PBS buffer and 2 μL were placed on a glass slides and covered with glass coverslips. C. glabrata (ATCC 2001) cells treated with probes 1-6, all tested Candida cells treated with ER-tracker Blue-White DPX and inter-organelle interaction study were imaged on a MORE imaging system (TILL Photonics GmbH) with an Olympus UPlanApo 100X 1.3 NA oil immersion objective. The bandpass filter sets used to image probes 1-3 were excitation 427/10 nm and emission 510/20 nm. The bandpass filter sets used to image probes 4-6 were excitation 485/20 nm and emission 525/30 nm. The bandpass filter sets used to image ER-tracker Blue-White DPX were excitation 390/40 nm and emission 525/30 nm. The bandpass filter sets used to image Cy5-based mitochondrial dye were excitation 560/25 nm and emission 684/24 nm. C. albicans cells (ATCC 24433 and SN152) and C. glabrata (ATCC 66032) treated with probes 1-6 were imaged on a Nikon Ti microscope equipped with a Plan Apo VC 100X oil objective and a Zyla 5.5 sCMOS camera (Andor) run by NIS elements Ar software. The bandpass filter sets used to image probes 1-3, and DiOC6-stained cells were excitation 440 nm and emission 480/40 nm. The bandpass filter sets used to image cells treated with probes 4-6, excitation 470 nm and emission 525/50 nm were used. For Eno1-mCherry, excitation 585 nm and emission 630/75 nm were used. To optimize the probes, the effects of the concentration (1, 5 and 10 μM), incubation time (5, 30, 60 and 120 min) and media (YPD and HBSS) were investigated. Images were processed using ImageJ program. The smoothed imaged were generated using the convolve filter (Normalize Kernel).

C. albicans cells = test: Live cell imaging, ER labeling; type: cell-based, Candida albicans
Protocol: as §1, §2
(§3) Live cell imaging. Candida cells were resuspended in PBS buffer and 2 μL were placed on a glass slides and covered with glass coverslips. […]

C. glabrata strains = test: Live cell imaging, ER labeling; type: cell-based, Candida glabrata; settings: C. glabrata yeast cells
Protocol: as §1, §2, §3

[2] = commercial ER-trackers; cited from earlier work
C. albicans SN152 [3] = test: Live cell imaging, ER labeling; type: cell-based, Candida albicans
Protocol: as §1, §2, §3

C. glabrata ATCC 66032 = test: Minimal inhibitory concentration broth double-dilution assay; type: cell-based, Candida glabrata; settings: Nakaseomyces glabratus, ATCC66032, 24 h, 37° C., Casitone
Protocol: (§4) Minimal inhibitory concentration broth double-dilution assay. All strains were tested using the double-dilution method in 96-well plates (Corning). Yeast strains were grown in Casitone growth medium. Starter cultures were incubated for 24 h (37° C., 5% CO2, aerobic conditions) and then diluted 1:100 into fresh medium. Compounds dissolved in ethanol or in DMSO were added to the casitone broth to form the mother liquor (32 μL stock solution in 1218 μL of casitone) at the starting concentration of 64 μg/mL. Next, 100 μL of serial double dilutions of compounds in Casitone ([…], and 0.007 μg/mL) were prepared in flat-bottomed 96-well microplates (Corning). Control wells with no compounds, and wells without yeast cells containing each tested concentration of the compounds (blanks), were also prepared. An equal volume (100 μL) of yeast suspensions in Casitone broth that was prepared as follows: 900 mL doubly distilled H2O, 9 g Casitone (bacto-casitone), 5 g yeast extract, 11.5 g sodium citrate dihydrate, 20 g glucose. The yeast suspension was added to each well for a final volume of 200 μL. The ethanol or the DMSO concentrations ranged from 0.0012% to 1.3%. The final inoculum was between 5×10^4 colony-forming unit (CFU)/mL and 5×10^5 CFU/mL; identical results were obtained when using 5×10^3 CFU/mL as a final inoculum. After incubation for 24 h at 37° C. in 5% CO2, MTT (3-[4,5-dimethylthiazole-2-yl]-2,5-diphenyltetrazolium bromide; 50 μL of a 1 mg/mL solution in H2O) was added to each well followed by additional incubation at 37° C. for 2 h. Each concentration was tested in triplicate, and results were confirmed by two independent sets of experiments.

C. glabrata ATCC 2001 = test: as above; type: cell-based, Candida glabrata; settings: Nakaseomyces glabratus, ATCC2001, 24 h, 37° C., Casitone
Protocol: as §4

C. albicans ATCC 24433 = test: as above; type: cell-based; settings: Candida albicans, ATCC24433, 24 h, 37° C., Casitone
Protocol: as §4

C. albicans SN152 [4] = test: as above; type: cell-based; settings: Candida albicans, 24 h, 37° C., Casitone
Protocol: as §4

[5] = system: all tested Candida strains; test: MIC assay, over the panel; type: cell-based
Protocol: as §4, with “The final inoculum was between 5×10^4 colony-forming unit (CFU)/mL and 5×10^5 CFU/mL; identical results were obtained when using 5×10^3 CFU/mL as a final inoculum. After incubation for 24 h at 37° C. in 5% CO2, MTT (3-[4,5-dimethylthiazole-2-yl]-2,5-diphenyltetrazolium bromide; 50 μL of a 1 mg/mL solution in H2O) was added to each well followed by additional incubation at 37° C. for 2 h. Each concentration was tested in triplicate, and results were confirmed by two independent sets of experiments.” left out
The ER-labeling properties were evaluated by incubating the compounds with representative strains of C. albicans and C. glabrata. […]

[6] = Absorption and emission spectra of fluorescent probes; type: physicochemical; settings: 10 μM in PBS, pH=7.4; for emission maxima: excitation at 420 nm
Protocol: FIGS. 4A-4F show absorption and emission spectra of probes 1-6 (10 μM in PBS, pH=7.4), respectively. Emission spectrum was measured after excitation at 420 nm.
General chemistry methods and instrumentation. ^1H-NMR spectra (including 1D-TOCSY) were recorded on BrukerAvance™ 400 or 500 MHz spectrometers, and chemical shifts (reported in ppm) were calibrated to CDCl3 (d=7.26) when CDCl3 was the solvent, or to CD3OD (d=3.31) when CD3OD was the solvent. ^13C-NMR spectra were recorded on BrukerAvance™ 400 or 500 MHz spectrometers at 100 or 125 MHz. ^19F-NMR spectra were recorded on BrukerAvance™ 400 or 500 MHz spectrometers at 375 or 470 MHz. Multiplicities are reported using the following abbreviations: b=broad, s=singlet, d=doublet, t=triplet, q=quartet. Coupling constants (J) are given in Hertz. HRESI mass spectra were measured on a Waters Synapt instrument. Chemical reactions were monitored by TLC (Merck, Silica gel 60 F254). Visualization was achieved using a cerium molybdate stain (5 g (NH4)2Ce(NO3)6, 120 g (NH4)6Mo7O24·4H2O, 80 mL H2SO4, 720 mL H2O) or with UV lamp. Unless otherwise stated, all chemicals were obtained from commercial sources. Compounds were purified using Geduran® Si 60 chromatography (Merck). The SpectraMax i3x Platform spectrophotometer from Molecular Devices was used for the measurement of the excitation and absorbance spectra of the fluorescent probes.
We first measured the absorption and emission spectra of fluorescent probes 1-6. […] This 70-nm redshift effect is attributed to the effect of the halogen atoms in the phenyl ring segment of these molecules: a difluorophenyl ring in probe 2 and a dichlorophenyl in probe 3.

Compound	staining pattern [1]	MIC (C. glabrata ATCC 66032) [µg/mL]	MIC (C. glabrata ATCC 2001) [µg/mL]	MIC (C. albicans ATCC 24433) [µg/mL]	MIC (C. albicans SN152 [4]) [µg/mL]	further results
COC(=O)CCC1=[N+]2C(=Cc3c(C)cc(C)n3[B-]2(F)F)C=C1 [BODIPY-methyl ester]	the entire cytoplasm was labeled in a non-specific pattern	–	–	–	–	–
CN(C)c1ccc(-c2cnc(-c3ccc(S(=O)(=O)NCCNC(=O)c4c(F)c(F)c(F)c(F)c4F)cc3)o2)cc1 [Blue-White DPX]	stained Candida glabrata cells only; also recorded: non-specific labeling of additional intracellular compartments, such as lipid droplets, was observed	–	–	–	–	staining pattern (C. albicans cells): non-specific staining of the cytoplasm; staining pattern (C. glabrata strains): label the ER; also recorded: a circular pattern around the nuclear envelope with peripheral cortical extensions reminiscent of the ER structure was clearly visible; emission (em) [2]: 430-640 nm; excitation (ex) [2]: 374 nm
CCCCCCN1C(=CC=Cc2oc3ccccc3[n+]2CCCCCC)Oc2ccccc21.[I-] [DiOC6, 3,3′-dihexyloxacarbocyanine iodide]	more significant in C. albicans than in C. glabrata yeast cells; also recorded: non-specific labeling of additional intracellular compartments, such as lipid droplets, was observed	–	–	–	–	staining pattern (C. albicans SN152 [3]): non-specific staining of other cellular compartments such as lipid droplets was also observed; emission (em) [2]: 500 nm; excitation (ex) [2]: 480 nm
OC(Cn1cncn1)(Cn1cncn1)c1ccc(F)cc1F [FLC, fluconazole, reference compound]	–	64 (≈ 209 µM)	64 (≈ 209 µM)	0.5 (≈ 1.63 µM)	0.5 (≈ 1.63 µM)	–
CCC(C)n1ncn(-c2ccc(N3CCN(c4ccc(OCC5COC(Cn6cncn6)(c6ccc(Cl)cc6Cl)O5)cc4)CC3)cc2)c1=O (stereo not drawn) [ITR, itraconazole, reference compound]	–	0.5 (≈ 0.709 µM)	4 (≈ 5.67 µM)	0.015 (≈ 0.0213 µM)	0.007 (≈ 0.00992 µM)	–
CCN(CC)c1ccc2cc(C(=O)NCC(O)(Cn3cncn3)c3ccc(F)cc3F)c(=O)oc2c1 (stereo not drawn) [Probe 1]	–	8 (≈ 16.1 µM)	16 (≈ 32.2 µM)	0.03 (≈ 0.0603 µM)	0.007 (≈ 0.0141 µM)	–
CCN(CC)c1ccc2cc(C(=O)NCC(O)(Cn3ccnn3)c3ccc(F)cc3F)c(=O)oc2c1 (stereo not drawn) [Probe 2]	the distinct nuclear envelope and cortical structure of the ER were clearly observed	> 64	> 64	> 64	> 64	MIC [5]: ≥ 64 µg/mL; absorption spectrum maxima [6]: 430 nm; emission maxima [6]: 480 nm
CCN(CC)c1ccc2cc(C(=O)NCC(O)(Cn3ccnn3)c3ccc(Cl)cc3Cl)c(=O)oc2c1 (stereo not drawn) [Probe 3]	the distinct nuclear envelope and cortical structure of the ER were clearly observed	> 64	> 64	> 64	> 64	MIC [5]: ≥ 64 µg/mL; absorption spectrum maxima [6]: 430 nm; emission maxima [6]: 550 nm
CCOC(=O)c1cc2ccc(N(CC)CC)cc2oc1=O [ethyl ester of 7-(diethyl)-aminocoumarin, 7-(diethyl)-aminocoumarin ethyl ester]	did not stain the yeast cell interior of any of the tested Candida strains	–	–	–	–	–
